Data set [1] relates to MCF-7. The experiment in a line: CellTiter-Glo cell viability, MCF-7. Type of data set: cell-based. The note with it: Homo sapiens, MCF7; MCF-7 cells, 72 h with compound. On the procedure:
(§1) Antitumor activity against a panel of cancer cell lines Antitumor activity of the compounds was assessed by using the CellTiter-Glow® Luminescent Cell Viability assay (Promega #G7572) according to the manufacturer's instructions. The compounds were tested at 5 or 6 concentrations in 1:2 dilution increments (highest concentration 10 µM) in triplicate well conditions.
(§2) Tumor cells were grown at 37° C. in a humidified atmosphere with 5% CO2 in RPMI 1640 or DMEM medium, supplemented with 10% (v/v) fetal calf serum and 50 μg/ml gentamicin for up to 20 passages, and were passaged once or twice weekly. Cells were harvested using TrypLE or PBS buffer containing 1 mM EDTA, and the percentage of viable cells is determined using a cell counter.
(§3) Cells were harvested from exponential phase cultures, counted and plated in 96 well flat-bottom microtiter plates at a cell density depending on the cell line's growth rate (4,000-20,000 cells/well depending on the cell line's growth rate) in RPMI 1640 or DMEM medium supplemented with 10% (v/v) fetal calf serum and 50 μg/ml gentamicin (140 μl/well). Cultures were incubated at 37° C. and 5% CO2 in a humidified atmosphere. After 24 h, 10 μl of test compounds or control medium are added, and left on the cells for another 72 h. Compounds were serially diluted in DMSO, transferred in cell culture medium, and added to the assay plates. The DMSO concentration was kept constant at <0.2% v/v across the assay plate. Viability of cells was quantified by the CellTiter-Glow® Luminescent Cell Viability assay (Promega #G7572). Luminescence was measured with the microplate luminometer (En Vision Perkin Elmer).
(§4) Sigmoidal concentration-response curves were fitted to the data points (test-versus-control, T/C values) obtained for each tumor model using Graph Pad prism 5.02 software. IC50 values are reported as absolute IC50 values, being the concentration of test compound at the intersection of the concentration-response curves with T/C=50%.
In general terms: ATP-based viability assays read luminescence as a measure of living cells.

Data set [2] has as its system K562. The experiment in a line: CellTiter-Glo cell viability, K562. Type of data set: cell-based. The note with it: Homo sapiens; K562 cells, 72 h with compound. As to the method: as §1, §2
as §3, with “After 24 h, 10 μl of test compounds or control medium are added, and left on the cells for another 72 h. Compounds were serially diluted in DMSO, transferred in cell culture medium, and added to the assay plates. The DMSO concentration was kept constant at <0.2% v/v across the assay plate.” left out, “Elmer). […]” for “Elmer).”

For data set [3], the system named is SK-Mel-5. The experiment in a line: CellTiter-Glo cell viability, SK-Mel-5. The data set is classed as cell-based. The note with it: Homo sapiens; SK-Mel-5 cells, 72 h with compound. On the procedure:
as §1, §2, §3, §4

For data set [4], the system named is A2058. The experiment in a line: Caspase-Glo 3/7 apoptosis assay, A2058. Type of data set: cell-based. Conditions: A2058 cells, 10 μM, 24 h. On the procedure: Apoptosis activity was evaluated using Caspase-Glo 3/7 Assay kit (Promega-G8091) according to the manufacturer's instructions. Cells were grown as above and harvested from exponential phase cultures, counted and plated in 96 black well flat-bottom microtiter plates at a cell density depending on the cell line's growth rate (3,000-10,000 cells/well depending on the cell line's growth rate). Following an overnight incubation, compounds were added to the cell plates at various concentrations (highest at […]) with the DMSO concentration maintained at 0.1% for a 24 h period treatment. 100 μL of Caspase-Glo 3/7 Reagent was added to each well of 96-well plate containing 100 μL culture medium, and after 30 min at room temperature, luminescence was measured with the microplate luminometer (EnVision Perkin Elmer). The induced relative Caspase 3/7 activity of the tested compounds was determined by the following formula: Relative Caspase 3/7 activity (fold increase)=(RLU compound−RLU blank)/(RLU control−RLU blank).

In data set [5] the test system is JAK/STAT. The experiment in a line: SelectScreen CellSensor pathway inhibition, JAK/STAT. The data set is classed as cell-based. Conditions: Homo sapiens; ISRE-bla Jurkat, stimulus IFN-alpha. As to the method: Inhibition of various cellular pathways known to be involved in malignancy was tested using the SelectScreen Cell-based Pathway Profiling GeneBLAzer™ cell signaling pathway specific CellSensor™ cell lines ((Thermo Fisher). The assay is based on a beta-lactamase reporter activity which is modulated and can be measured quantitatively and selectively with the LiveBLAzer™-FRET B/G Loading Substrate. SelectScreen Cell-Based Pathway Profiling Service uses XLfit from IDBS. The dose response curve is curve fit to model number 205 (sigmoidal dose-response model). Custom logic was built by Thermo Fisher for the data analysis tool to address the different compound characteristics that can be observed with functional assays.
JAK/STAT—ISRE-bla HEK 293T—Inhibitor Screen, Activated by IFN-Alpha
ISRE-bla HEK 293T cells are thawed and resuspended in Assay Media (OPTI-MEM, 0.5% dialyzed FBS, 0.1 mM NEAA, 1 mM Sodium Pyruvate, 100 U/mL/[…] Pen/Strep) to a concentration of 625,000 cells/mL. 32 μL of cell suspension is added to each well of a 384-well TC-Treated assay plate. Cells in Assay Media are incubated for 16-24 hours in the plate at 37° C./5% CO2 in a humidified incubator. […] 4 μL of 10× control activator IFN-alpha at the pre-determined EC80 concentration is added to wells containing the control inhibitor or compounds. […] The plate is read on a fluorescence plate reader.

Data set [6] deals with A2058 melanoma tumor cells. The experiment in a line: In vivo tumour inhibition, A2058 melanoma xenograft. On the set-up: species or system Balb-c/nude mouse. As to the method:
The A2058 tumor cells were maintained in vitro in DMEM medium supplemented with 10% fetal bovine serum and 1% Anti-Anti at 37° C. in an atmosphere of 5% CO2 in air. The tumor cells were routinely subcultured twice weekly.
(§5) Each Balb-c/nude mouse was inoculated subcutaneously at the right flank with A2058 melanoma tumor cells (5×10^6+Matrigel) in 0.2 ml of PBS for tumor development. 10 animals per group were randomized when the average tumor volume reached 74 mm^3. Test compounds were prepared as DMSO stocks and diluted in the injection vehicle before administration. The treatment was administered every other day (QOD) as a peritumoral injection. Vehicle composition was 4% DMSO, 5% ethanol, 20% PEG200, 71% saline. Dosing volume for all groups: 5 mL/kg.
Tumor volume was measured twice weekly in two dimensions using a caliper, and the volume was expressed in mm^3 using the formula: V=0.5a×b^2 where a and b are the long and short diameters of the tumor, respectively. The tumor size was then used for calculations of T/C value: The T/C value (in percent) is an indication of antitumor effectiveness; T and Care the mean volumes of the treated and control groups, respectively, on a given day.
One-way ANOVA was performed to compare tumor volume among treated groups and vehicle group, all data were analyzed using GraphPad Prism 5.0. p<0.05 was considered to be statistically significant.

The nature of data set [7]: Tolerability in the A2058 xenograft study. Type of data set: in vivo, Balb-c/nude mouse. Conditions: peritumoral QOD; resolved after the treatment was stopped. As to the method:
as §5
Body weight and clinical signs were monitored throughout the study.

Setting [8] is: 16 mg/kg peritumoral QOD, 6 injections, day 20 after treatment start.

The term IC50 denotes the concentration at which inhibition is half-maximal. As a reminder, the T/C is the ratio of treated to control. Broadly, the TGI is how far tumour growth fell short of that in controls. Lower therefore signals little slowing of growth. On to `COc1ccc2c(=O)c(-c3ccc(CCCC[P+](c4ccccc4)(c4ccccc4)c4ccccc4)cc3)coc2c1OC.[Br-]` [SND470, (4-(4-(7,8-Dimethoxy-4-oxo-4H-chromen-3-yl)phenyl)butyl)triphenylphosphonium bromide], for which the IC50 in data set [1] is 21 nM; in data set [2] it was 14 nM; in data set [3], 470 nM; in data set [5], 360 nM. The “Fold activation of Caspase 3/7” value in data set [4] is listed as 3.87 Fold. Also, the T/C in data set [6] (setting [8]) was 39.2%. The same compound showed a TGI in data set [6] (setting [8]) of 62.8%. In data set [6] (16 mg/kg peritumoral QOD, 6 injections, day 20 after treatment start, mean ± SEM), the “Tumor Volume” value is listed as 886 ± 127 mm^3. Besides, the “activity in inhibiting A2058 melanoma cell line in vivo” value in data set [6] (nude mouse xenograft model of melanoma) is on record as “significant activity”. Besides, the “finding at the site of the injection” value in data set [7] is reported as “slight scabbing at the site of the injection”.

The values above are taken from US20260028364A1, “CATIONIC CHROMENONES AND THEIR USE IN ONCOLOGY” (FLORATEK PHARMA S.A., priority 2022, published 2026).
